Patent publication US20260070921A1, “COMPOUND, ENDOPLASMIC RETICULUM STRESS INHIBITOR, PHARMACEUTICAL PRODUCT, OPHTHALMIC AGENT, EYE DROPS, COMPOSITION, AND METHOD FOR PRODUCING COMPOUND” (KYOTO UNIVERSITY, priority 2022, published 2026)

Key:
HEK293 cells = assay: Cell viability assay without ER stress inducer (cytotoxicity, WST-8); type: cell-based; conditions: 64 h
Method: HEK293 cells were treated with compound 1, compound 4, compound 5, or compound 6 (25 μM or 100 μM, respectively) for 64 hours. The vertical axis represents relative cell viability (unit: %), and the horizontal axis represents concentration (unit: μM). Cell viability was measured using a WST-8 cell counting kit. Error bars represent s.d. (n=3).
(§1) FIG. 31 is a graph showing the results of a cell viability assay using bafilomycin A1. HEK293 cells were treated with bafilomycin A1 in DMEM (10% FBS) for 48 hours. The vertical axis represents relative cell viability (unit: %), and the horizontal axis represents the concentration of bafilomycin A1 (unit: μM). Cell viability was measured using a WST-8 cell counting kit. Error bars represent s.d. (n=3).
as §1, with “32” for “31”, “MG132.” for “bafilomycin A1.”, “MG132” for “bafilomycin A1”, “t),” for “%),”
The term “Efficacy” denotes ER (endoplasmic reticulum) stress inhibition activity. The term “Toxicity” denotes cytotoxicity. In the ER stress inhibition activity (Efficacy), “−” indicates no activity, “+” indicates weak activity, and “++” indicates strong activity. In addition, “XD7” in Table 1 below represents compound 6. That is, XD7 and compound 6 are the same compound.

BiP = assay: Quantitative RT-PCR of ER stress-related genes, BiP; type: cell-based; conditions: pretreatment 10 h, tunicamycin 1.0 μg/mL 24 h
Method: First, total RNA was isolated using ISOGEN (tradename of Nippon Gene Co., Ltd.). cDNA was prepared using a Prime Script (trade name) first-strand cDNA synthesis kit (TaKaRa). qRT-PCR was performed with Fast SYBR Green Master Mix (Thermo Fisher) on a QuantStudio 3 real-time PCR system (Thermo Fisher). The copy number of each transcript is expressed relative to β-actin. The sequences of the primers (forward and reverse) are as follows: […]
The ability to alleviate endoplasmic reticulum (ER) stress of compound 1 was examined in HEK293 cells. FIGS. 1 and 2 show the biological activity of compound 1 for decreasing cytotoxicity under ER stress. […] Error bars represent s.d. (n=3). Statistical analysis was performed according to one-way ANOVA and a Dunnett's test using R software. […] To further study the effect of compound 1 on ER stress, mRNA levels of typical UPR genes, such as ATF4, s-XPB1, CHOP, BiP, and ERDJ4, were examined. In addition to compound 1, compound 6 was also tested in the same experiment. […] The quantitative RT-PCR was performed according to the method described above. HEK293 cells were treated with compound 1 (100 μM) for 10 hours and then incubated with tunicamycin (1.0 μg/mL) for 24 hours. Isolated RNA samples were subjected to reverse transcription and quantitative RT-PCR. […]

caspase 3 = assay: Western blotting of TGF-β2-induced caspase activation in iFECD; type: cell-based, human; conditions: TGF-β2 stimulated iFECD
Method: In order to collect floating cells and dead cells, the medium was collected on ice, and the solution resulting from washing cells with 1×PBS(−) twice was also collected and centrifuged at 4° C. at 800 g for 12 minutes, followed by discarding the supernatant, thereby obtaining a precipitate. Proteins were extracted from the washed cells by adding a protein extraction buffer (RIPA; 50 mM Tris-HCl (pH of 7.4), 150 mM NaCl, 1 mM EDTA, 0.1% SDS, 0.5% DOC, 1% NP-40) on ice. Thereafter, the precipitate obtained after centrifugation of the floating cells and dead cells was suspended together and extracted. The collected liquid was pulverized in cold water for 30 seconds three times with an ultrasonic device (BIORUPTOR, Tosho Denki) and then centrifuged at 4° C. at 15000 rpm for 10 minutes to collect the protein supernatant.
5 to 8 μg of the extracted proteins were separated by SDS-PAGE and transferred to a nitrocellulose membrane. The primary antibodies used were rabbit anti-Caspase 3 antibody (Cell Signaling, 9662), rabbit anti-PARP antibody (Cell Signaling, 9542), and mouse anti-GAPDH antibody (MBL, M171-3). […] The intensity of the detected bands was analyzed using a LAS-4000mini lumino image analyzer (Fujifilm) and ImageQuant™ software (GE Healthcare).

denatured BSA-flu = denatured BSA-flu (Bos taurus, UniProt P02769); assay: Co-assembly with fluorescently labeled BSA (BSA-flu), confocal imaging; type: binding; conditions: 25° C. 19 h, excess unlabeled BSA 2.0 mg/mL
Method: To prepare denatured BSA-flu, a solution of BSA-flu (1.1 mg/mL) in PBS (pH of 7.4) was incubated at 80° C. for 1 hour. Native or denatured BSA-fluorescein (final concentration: 0.1 mg/mL) was added to a solution of compound 1 (100 μM) or compound 6 (25 μM) in PBS (pH of 7.4) containing 2.0 mg/mL BSA. The mixture was incubated at 25° C. for 19 hours and then images were taken with a CV1000 confocal microscope. The fluorescence intensity of the co-assemblies was quantified from the images obtained using ImageJ software.

BSA = BSA (Bos taurus, UniProt P02769); assay: Native PAGE analysis of heat-induced BSA denaturation; type: biochemical; conditions: 75° C. 1 h; compounds 100 μM, PBA 10 mM
Method: Samples were subjected to native PAGE analysis using 8% acrylamide gels in 0.1 M Tris-HCl, pH of 7.8 (cathode) and 68 mM glycine, 53 mM Tris-HCl, pH of 8.9 (anode). After staining the gel with Coomassie Brilliant Blue, images were taken using an ImageQuant LAS500 imager (Cytiva).

Sequence of BSA (P02769 25-607): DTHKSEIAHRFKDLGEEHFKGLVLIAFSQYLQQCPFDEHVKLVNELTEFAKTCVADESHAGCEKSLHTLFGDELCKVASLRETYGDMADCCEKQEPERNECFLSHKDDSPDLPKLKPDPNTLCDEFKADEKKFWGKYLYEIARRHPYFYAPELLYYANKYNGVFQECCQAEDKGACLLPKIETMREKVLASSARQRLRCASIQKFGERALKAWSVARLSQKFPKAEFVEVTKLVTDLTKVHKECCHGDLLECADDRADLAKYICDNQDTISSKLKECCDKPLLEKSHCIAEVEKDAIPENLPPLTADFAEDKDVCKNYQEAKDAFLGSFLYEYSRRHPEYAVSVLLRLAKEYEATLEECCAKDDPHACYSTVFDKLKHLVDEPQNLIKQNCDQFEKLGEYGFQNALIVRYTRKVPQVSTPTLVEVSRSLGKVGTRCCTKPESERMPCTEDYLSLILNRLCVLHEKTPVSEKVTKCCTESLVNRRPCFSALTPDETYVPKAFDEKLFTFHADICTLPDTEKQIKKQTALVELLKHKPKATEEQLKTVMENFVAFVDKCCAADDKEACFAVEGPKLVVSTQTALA
Sequence of denatured BSA-flu (P02769 25-607): as above

Structure (SMILES)	Cytotoxicity (HEK293 cells; at 25 μM)	Cytotoxicity (HEK293 cells; at 100 μM)	Effect on BiP mRNA levels (BiP)	Cleaved active caspase 3 (about 17 kDa) (caspase 3)	Co-assembly with native or denatured BSA-flu (denatured BSA-flu)	Inhibition of heat-induced denaturation of BSA (BSA)	Cytotoxicity (HEK293 cells; up to 100 μM)
COc1ccc2c(c1)sc1c(=O)nc3nc(Nc4ccc(S(N)(=O)=O)cc4)ccn3c12 [compound 6]	no obvious cytotoxicity	slightly reduced cell viability	limited effect	hardly detected	selectively formed co-assemblies with heat-denatured BSA	does not exhibit activity to inhibit the thermal denaturation of BSA	–
NS(=O)(=O)c1ccc(Nc2ccn3c(n2)nc(=O)c2sc4cc(F)ccc4c23)cc1 [compound 1]	–	–	limited effect	hardly detected	selectively formed co-assemblies with heat-denatured BSA	does not exhibit activity to inhibit the thermal denaturation of BSA	no obvious cytotoxicity
